For data set [1], the target named is T1, human adrenergic-α2A receptor (Homo sapiens, UniProt P08913).
T1 construct: expressed in transfected cells; host or cells: CHO cells, stably transfected; membrane preparation
T1 sequence (P08913 1-465): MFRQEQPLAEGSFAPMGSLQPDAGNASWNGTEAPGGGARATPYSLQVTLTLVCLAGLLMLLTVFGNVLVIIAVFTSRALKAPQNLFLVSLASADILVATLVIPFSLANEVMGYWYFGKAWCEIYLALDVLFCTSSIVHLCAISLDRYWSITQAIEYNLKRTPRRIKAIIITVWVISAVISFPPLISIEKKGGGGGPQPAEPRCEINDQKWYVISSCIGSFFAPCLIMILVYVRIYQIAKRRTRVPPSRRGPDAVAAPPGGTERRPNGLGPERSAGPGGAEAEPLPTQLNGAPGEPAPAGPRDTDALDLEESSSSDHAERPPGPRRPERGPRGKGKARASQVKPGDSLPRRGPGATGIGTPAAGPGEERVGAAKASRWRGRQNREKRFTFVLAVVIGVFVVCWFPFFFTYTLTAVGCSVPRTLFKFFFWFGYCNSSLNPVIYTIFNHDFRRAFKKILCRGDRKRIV
Briefly: Radioligand binding experiment for hα2A-adrenergic receptor ([3H]raulwolscine). The following applies: [3H]raulwolscine 1 nM, 60 minutes at 25° C.; read-out: h-α2A pIC50 (converted). The method in brief: (§1)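 CHO membranes expressing human α2A or α2C receptors were incubated with 1 nM [^3H]raulwolscine for 60 min at 25° C in glycylglycine 25 mM, pH 8.0, then filtered. Nonspecific binding was defined with 1 μM oxymetazoline for α2A and 1 μM spiroxatrine for α2C. pIC50 came from sigmoidal competition curves.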

For data set [2], the target named is T2, human adrenergic-α2C receptor (Homo sapiens, UniProt P18825).
T2 construct: expressed in transfected cells; host or cells: CHO cells, stably transfected; membrane preparation
T2 sequence (P18825 1-462): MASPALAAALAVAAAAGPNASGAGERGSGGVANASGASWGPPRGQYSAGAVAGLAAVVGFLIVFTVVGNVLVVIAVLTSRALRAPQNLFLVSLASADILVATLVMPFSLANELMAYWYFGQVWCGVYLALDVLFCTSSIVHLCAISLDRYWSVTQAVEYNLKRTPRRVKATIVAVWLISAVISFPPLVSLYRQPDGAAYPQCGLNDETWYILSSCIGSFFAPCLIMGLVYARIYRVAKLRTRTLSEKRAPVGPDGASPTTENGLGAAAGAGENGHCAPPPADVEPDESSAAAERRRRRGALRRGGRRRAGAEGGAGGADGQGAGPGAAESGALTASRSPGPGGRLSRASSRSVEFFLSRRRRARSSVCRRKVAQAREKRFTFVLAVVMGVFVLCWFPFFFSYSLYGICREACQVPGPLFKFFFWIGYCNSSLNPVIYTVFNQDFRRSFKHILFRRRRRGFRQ
Briefly: Radioligand binding experiment for hα2C-adrenoceptor ([3H]raulwolscine). The settings on record: [3H]raulwolscine 1 nM, 60 minutes at 25° C.; read-out: h-α2C pIC50 (converted). The method in brief:
as §1

The target in data set [3] is T3, 5HT-transporter (Homo sapiens, UniProt P31645).
T3 construct: Human platelet membranes (Oceanix Biosciences Corporation, Hanover, Md., USA) were thawed; tissue Oceanix Biosciences Corporation, Hanover, Md., USA; host or cells: human platelet membranes
T3 sequence (P31645 whole entry): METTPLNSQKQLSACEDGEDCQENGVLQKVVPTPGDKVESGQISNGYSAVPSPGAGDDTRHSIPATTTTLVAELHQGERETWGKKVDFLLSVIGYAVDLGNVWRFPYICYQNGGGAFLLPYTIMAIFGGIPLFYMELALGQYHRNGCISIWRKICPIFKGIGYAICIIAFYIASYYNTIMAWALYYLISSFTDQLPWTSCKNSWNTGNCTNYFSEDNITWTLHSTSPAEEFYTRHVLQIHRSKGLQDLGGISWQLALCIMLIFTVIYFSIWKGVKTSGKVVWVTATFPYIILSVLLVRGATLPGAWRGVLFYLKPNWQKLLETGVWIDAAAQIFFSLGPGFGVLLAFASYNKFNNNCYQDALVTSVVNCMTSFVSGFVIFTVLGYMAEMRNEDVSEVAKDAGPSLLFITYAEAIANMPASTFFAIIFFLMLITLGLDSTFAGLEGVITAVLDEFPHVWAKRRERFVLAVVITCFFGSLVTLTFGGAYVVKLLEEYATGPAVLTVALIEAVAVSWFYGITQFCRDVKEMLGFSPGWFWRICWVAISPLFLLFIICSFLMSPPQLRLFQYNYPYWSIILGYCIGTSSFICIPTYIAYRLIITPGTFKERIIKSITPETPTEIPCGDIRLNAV
Briefly: Binding experiment for the 5HT-transporter ([3H]paroxetine, human platelet membranes). The settings on record: [3H]paroxetine 0.5 nM, 60 min at 25° C., read-out: h-5HTT pIC50 (converted). The method in brief: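 Competition binding of [3H]paroxetine to human platelet membranes in Tris-HCl 50 mM with 120 mM NaCl and 5 mM KCl; bound radioligand separated by GF/B filtration and counted.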

For `O=c1c(NC2CCN(Cc3ccc4ccccc4c3)CC2)nccn1-c1cccnc1` [6-06], the melting point is more than 300 °C. In addition, the IC50 in data set [1] was 398 nM. Further, the IC50 in data set [2] is 50.1 nM. In addition, the IC50 in data set [3] was 100 nM.
On the same counts, the results for `O=C(c1ccc(-n2ccnc(NC3CCN(Cc4ccc5ccccc5c4)CC3)c2=O)cc1)N1CCOCC1` [2-08] are 271.4 °C, 100 nM, 25.1 nM and 63.1 nM.
As for `O=c1c(NC2CCN(Cc3ccc4ccccc4c3)CC2)nccn1CCN1CCCCC1` [2-10], the melting point is 161.2 °C. In data set [1], the IC50 was 200 nM. Further, in data set [2], the IC50 is 25.1 nM. Also, in data set [3], the IC50 is 158 nM.
As to `O=C(NCCN1CCCCC1)c1ccc(-n2ccnc(NC3CCN(Cc4ccc5ccccc5c4)CC3)c2=O)cc1` [1-88], the melting point is 172.3 °C. Moreover, the IC50 in data set [1] is 79.4 nM. Besides, the IC50 in data set [2] is 25.1 nM. In addition, the IC50 in data set [3] is 3.16 nM.
For `CCCNC(=O)c1ccc(-n2ccnc(NC3CCN(Cc4ccc5ccccc5c4)CC3)c2=O)cc1` [1-09], in that order: 210.1 °C, 200 nM, 39.8 nM and 20 nM.
With `O=c1c(NC2CCN(Cc3ccc4ccccc4c3)CC2)nccn1-c1ccc(NCC2CCCO2)cc1` (stereo not shown) [1-78], the melting point is more than 300 °C. In data set [1], the IC50 was 200 nM. The IC50 in data set [2] was 10 nM. In addition, in data set [3], the IC50 was 15.8 nM.
For `O=C1c2ccccc2C(=O)N1CCCn1ccnc(NC2CCN(Cc3ccc4ccccc4c3)CC2)c1=O` [2-19], in that order: 76.5 °C, 126 nM, 3.98 nM and 12.6 nM.
For `O=c1c(NC2CCN(Cc3ccc4ccccc4c3)CC2)nccn1-c1ccc2c(c1)CN(Cc1ncc[nH]1)CC2` [6-14], in that order: 134.7 °C, 79.4 nM, 6.31 nM and 15.8 nM.
Compound `O=C1c2ccccc2C(=O)N1CC#CCn1ccnc(NC2CCN(Cc3ccc4ccccc4c3)CC2)c1=O` [2-20] gave a melting point of 96.3 °C. Further, the IC50 in data set [1] is 398 nM. Also, the IC50 in data set [2] was 7.94 nM. Besides, the IC50 in data set [3] is 15.8 nM.
On the same counts, the results for `O=c1c(NC2CCN(Cc3ccc4ccccc4c3)CC2)nccn1-c1ccc(COCCN2CCOCC2)cc1` [3-13] are 153.9 °C, 200 nM, 3.98 nM and 5.01 nM.
With `O=c1c(NC2CCN(Cc3ccc4ccccc4c3)CC2)nccn1-c1ccncc1` [6-07], the melting point is 125.1 °C. Also, the IC50 in data set [1] was 200 nM. Moreover, the IC50 in data set [2] was 63.1 nM. In data set [3], the IC50 was 100 nM.
For the compound `O=c1c(NC2CCN(Cc3ccc4ccccc4c3)CC2)nccn1-c1ccc(NCCN2CCOCC2)cc1` [1-92], the melting point was found to be 195.3 °C. Further, the IC50 in data set [1] is 316 nM. Further, the IC50 in data set [2] is 15.8 nM. In data set [3], the IC50 was 12.6 nM.
Compound `COC(=O)c1ccc(-n2ccnc(NC3CCN(Cc4ccc5ccccc5c4)CC3)c2=O)cc1` [3-05] returned a melting point of 196.5 °C. The IC50 in data set [1] is 100 nM. In addition, the IC50 in data set [2] was 79.4 nM. In addition, in data set [3], the IC50 was 39.8 nM.
Regarding `CCCCNc1cccc(-n2ccnc(NC3CCN(Cc4ccc5ccccc5c4)CC3)c2=O)c1` [1-05], the melting point was 117.5 °C. Also, in data set [1], the IC50 was 39.8 nM. The IC50 in data set [2] is 15.8 nM. The IC50 in data set [3] was 20 nM.
In the case of `C=CCSc1ncccc1C(=O)NCc1ccc(-n2ccnc(NC3CCN(Cc4ccc5ccccc5c4)CC3)c2=O)cc1` [1-102], the melting point came out at 117.7 °C. The IC50 in data set [1] is 316 nM. The IC50 in data set [2] is 63.1 nM. Also, the IC50 in data set [3] is 15.8 nM.
`O=c1c(NC2CCN(Cc3ccc4ccccc4c3)CC2)nccn1-c1ccsc1` [6-05] showed a melting point of 152.8 °C. The IC50 in data set [1] is 126 nM. The IC50 in data set [2] was 39.8 nM. The IC50 in data set [3] was 39.8 nM.
For the compound `O=C1c2ccccc2C(=O)N1C/C=C/Cn1ccnc(NC2CCN(Cc3ccc4ccccc4c3)CC2)c1=O` [2-18], the melting point was determined as 172.8 °C. For the same compound, the IC50 in data set [1] is 79.4 nM. For the same compound, in data set [2], the IC50 was 3.98 nM. In addition, the IC50 in data set [3] was 3.98 nM.
`O=c1c(NC2CCN(Cc3ccc4ccccc4c3)CC2)nccn1-c1ccc(CNCC2CCCO2)cc1` (stereo not shown) [1-79a] came in with a melting point of more than 300 °C. Moreover, the IC50 in data set [1] was 158 nM. Further, in data set [2], the IC50 is 5.01 nM. Also, the IC50 in data set [3] was 3.16 nM.
For `O=C(CCN1CCOCC1)Nc1ccc(-n2ccnc(NC3CCN(Cc4ccc5ccccc5c4)CC3)c2=O)cc1` [1-97], in that order: 183.4 °C, 316 nM, 12.6 nM and 15.8 nM.

As a reminder, the melting point is the temperature, or range, at which the solid turns liquid.

Values taken from patent publication US20080269251A1, “Substituted Pyrazinone Derivatives as Alpha2C-Adrenoreceptor Antagonists” (priority 2005, published 2008).
